Assay results: patent US7557103B2, “Imidazopyridazine compounds” (Eli Lilly and Company, priority 2005, dated 2009)
Positions count from the first letter of the chain named. Read-outs that look alike come from different tables or passages of the source.

Key:
[1] = in vivo; conditions: male, Sprague-Dawley, rat, iv, 3 mg/kg
Method: (§1) To test for volume of distribution, Male Sprague Dawley rats (N=3) are administered a single 3 mg/kg intravenous dose of compound. Multiple plasma samples are collected at time points from 0.08 to 24 hours post-dose. The plasma samples are analyzed by LC/MS/MS to determine the plasma concentrations. Plasma pharmacokinetic calculations are performed to determine the pharmacokinetic parameters including Vdist and plasma clearance (Clp).

[2] = male, Sprague-Dawley, in vivo, iv, 3 mg/kg
Method: as §1

[3] = target: T1, binding of ^125I-sauvagine to the cerebellum (Rattus norvegicus, UniProt P35353); test: In vivo potency assessment using ex vivo binding; conditions: oral route, ex vivo binding of 125I-sauvagine to the cerebellum
T1 construct: from tissue; host or cells: rat cerebellum
T1 sequence (P35353 24-415): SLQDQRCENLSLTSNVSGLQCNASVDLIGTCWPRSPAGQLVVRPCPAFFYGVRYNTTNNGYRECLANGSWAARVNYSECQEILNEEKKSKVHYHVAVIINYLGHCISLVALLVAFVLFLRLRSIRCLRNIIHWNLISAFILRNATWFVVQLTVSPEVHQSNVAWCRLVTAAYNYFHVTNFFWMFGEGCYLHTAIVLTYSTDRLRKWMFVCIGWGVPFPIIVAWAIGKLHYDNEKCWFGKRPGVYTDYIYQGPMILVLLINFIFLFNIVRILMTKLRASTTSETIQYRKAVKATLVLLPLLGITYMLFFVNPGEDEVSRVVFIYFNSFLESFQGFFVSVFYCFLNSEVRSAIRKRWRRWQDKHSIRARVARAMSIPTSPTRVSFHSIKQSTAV
Method: To assess in vivo potency, a compound of the present invention is evaluated using ex vivo binding. Using the procedures as provided in D. R. Gehlert et al., EJP 509: 145-153 (2005), a compound is administered to a rat via the oral route.

[4] = Rat intravenous pharmacokinetics (volume of distribution, plasma clearance); conditions: for rat Vdist: single intravenous dose (3 mg/kg); for clearance: male, Sprague-Dawley, plasma, iv, 3 mg/kg
Method: as §1

[5] = target: T2, human CRF2 (Homo sapiens, UniProt Q13324); test: CRF2 filter binding assay; conditions: 50 μM compound, HEK-hCRF2 membranes, 125I-sauvagine; read-out: percent inhibition at 50 μM
T2 construct: expressed in transfected cells; membranes
T2 sequence (Q13324 1-411): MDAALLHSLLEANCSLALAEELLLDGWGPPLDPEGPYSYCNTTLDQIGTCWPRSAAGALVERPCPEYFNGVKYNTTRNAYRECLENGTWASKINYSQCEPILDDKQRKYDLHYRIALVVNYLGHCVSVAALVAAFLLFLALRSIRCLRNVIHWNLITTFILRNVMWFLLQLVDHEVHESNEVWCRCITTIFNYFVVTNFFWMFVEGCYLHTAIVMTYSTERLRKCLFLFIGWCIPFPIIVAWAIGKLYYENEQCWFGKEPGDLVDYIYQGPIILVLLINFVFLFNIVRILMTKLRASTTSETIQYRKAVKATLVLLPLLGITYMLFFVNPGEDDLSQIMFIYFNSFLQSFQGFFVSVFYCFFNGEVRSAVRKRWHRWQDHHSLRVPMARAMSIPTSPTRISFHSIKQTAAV
Method: The limitations of plasmid-based human CRF2 expression, in terms of generating a recombinant cell line with sufficient receptor density to develop a binding assay, are overcome by using a Phoenix retroviral expression system licensed from Stanford. The stable HEK-hCRF2 cell line is used to prepare membranes and binding reactions (200 A1) are set up as follows: 50 ul of ^125I-sauvagine (0.2 nM final concentration), 501 compound and 100 μl CRF2 membrane (25 μg/reaction). The reactions are incubated at room temperature for 2 hours and then terminated by filtration through pre-treated FB Millipore glass fiber filter plates (96 well). The plates are washed twice with ice-cold assay buffer (50 mM tris, 12.5 mM NaCl, 1 mM EDTA, 10 mM MgCl2, 0.05% BSA, pH 7.2), air dried over night and counted with 100 μl Microscint 40 in a MicroBeta counter. Non-specific binding (NSB) is determined in the presence of 0.5 μM non-labeled sauvagine. Alternatively, compounds are evaluated using a Scintillation Proximity assay. […] Bound radioactivity is assessed using a Wallac Trilux scintillation counter. Binding is assessed typically using triplicate determinations and the median data points plotted by Graph Pad Prism. […]

[6] = target: T3, human CRF1 (Homo sapiens, UniProt P34998); test: CRF1 filter binding assay; conditions: HEK-hCRF1 membranes, 125I-sauvagine; read-out: Ki (inhibition constant)
T3 construct: expressed in transfected cells; membranes
T3 sequence (P34998 24-415): T1 sequence (P35353 24-415) with R6H, N9S, T13A, V16I, V153M, A163G, V209I, H229Y, R356H
Method: The limitations of plasmid-based human CRF1 expression, in terms of generating a recombinant cell line with sufficient receptor density to develop a binding assay, are overcome by using a Phoenix retroviral expression system licensed from Stanford. The stable HEK-hCRF1 cell line is used to prepare membranes and binding reactions (200 μl) are set up as follows: 50 μl of ^125I-sauvagine (0.2 nM final), 50 μl compound and 100 μL CRF1 membrane (25 μg/reaction). The reactions are incubated at room temperature for 2 hours and then terminated by filtration through pre-treated FB Millipore glass fiber filter plates (96 well). The plates are wash twice with ice-cold assay buffer (50 mM tris, 12.5 mM NaCl, 1 mM EDTA, 10 mM MgCl2, 0.05% BSA, pH 7.2), air dried over night and counted with 100 μl Microscint 40 in a MicroBeta counter. Non-specific binding (NSB) is determined in the presence of 0.5 μM non-labeled sauvagine. Triplicate determinations are typically run and the median data points plotted by Graph Pad Prism.

clearance [1] [mL/min/kg] | rat Vdist [2] [L/kg] | rat Vdist [4] [L/kg] | Compound | further results
 |  | 76 | CCCN(CCC)c1cc(C)nc2c(-c3cnc(N(C)C)cc3C)c(C)nn12 [NBI30775] | 
 |  | 114 | CCCCN(CC)c1nc(C)nc2c1c(C)cn2-c1c(C)cc(C)cc1C [CP154526] | clearance [4]: 83 mL/min/kg

The remaining lines, values behind:

Compound | clearance [1] [mL/min/kg] | rat Vdist [2] [L/kg] | rat Vdist [4] [L/kg] | further results
CCC(CC)c1cc(C)nn2c(-c3cc4cc(F)ccc4n3C)c(C)nc12 [Example 8, 8-(1-ethyl-propyl)-2,6-dimethyl-3-(5-fluoro-1-methyl-indol-2-yl)-imidazo[1,2-b]pyridazine] | 29 | 17 |  | 
CCC(CC)c1cc(C)nn2c(-c3sc4ccccc4c3C)c(C)nc12 [Example 2, 8-(1-ethyl-propyl)-2,6-dimethyl-3-(3-methyl-benzo[b]thiophen-2-yl)-imidazo[1,2-b]pyridazine] | 12 | 10 |  | 
CCC(CC)c1cc(C)nn2c(-c3cc4ccc(Cl)cc4n3C)c(C)nc12 [Example 34, 3-(6-chloro-1-methyl-1H-indol-2-yl)-8-(1-ethyl-propyl)-2,6-dimethyl-imidazo[1,2-b]pyridazine] | 14 | 15 |  | ED50 [3]: 5.5 mg/kg
CCC(CC)c1cc(C)nn2c(-c3c(C)oc4c(C(C)(C)O)cccc34)c(C)nc12 [Example 88, 2-{3-[8-(1-ethyl-propyl)-2,6-dimethyl-imidazo[1,2-b]pyridazin-3-yl]-2-methyl-benzofuran-7-yl}-propan-2-ol] |  |  |  | inhibition at 50 µM [5]: 27 ± 3%; Ki [6]: 19.2 ± 4.8 nM
CCC(CC)c1cc(C)nn2c(-c3sc4ccc(F)cc4c3C)c(C)nc12 [Example 1, 8-(1-ethyl-propyl)-2,6-dimethyl-3-(5-fluoro-3-methyl-benzo[b]thiophen-2-yl)-imidazo[1,2-b]pyridazine] |  |  | 8 | Ki [6]: 16.3 nM; clearance [4]: 9 mL/min/kg
